In one data set the test system is Aspergillus oryzae. The experiment in a line: Antifungal activity against Aspergillus oryzae assessed as fungal growth inhibition at 100 ug/ml by micro-dilution method relative to control. Type of data set: functional. As to conditions: read-out: GI.
Another data set concerns Alternaria alternata. The experiment in a line: Antifungal activity against Alternaria alternata assessed as fungal growth inhibition at 100 ug/ml by micro-dilution method relative to control. As to conditions: read-out: GI. In kind it is functional. Background: Broth dilution looks for growth in wells or tubes with falling amounts of substance.
Another data set concerns Penicillium ochrochloron. The experiment in a line: Antifungal activity against Penicillium ochrochloron assessed as fungal growth inhibition at 100 ug/ml by micro-dilution method relative to control. Type of data set: functional. As to conditions: read-out: GI.
For a further data set, the system named is Geotrichum candidum. In words: Antifungal activity against Geotrichum candidum assessed as fungal growth inhibition at 100 ug/ml by micro-dilution method relative to control. Type of data set: functional. As to conditions: read-out: GI.
The subject of data set [1] is Cladosporium cladosporioides. The experiment in a line: Antifungal activity against Cladosporium cladosporioides assessed as fungal growth inhibition at 100 ug/ml by micro-dilution method relative to control. Type of data set: functional. As to conditions: read-out: GI.
The test system of another data set is Botrytis cinerea. In words: Antifungal activity against Botrytis cinerea assessed as fungal growth inhibition at 100 ug/ml by micro-dilution method relative to control. Type of data set: functional. As to conditions: read-out: GI.
The test system of another data set is Fusarium solani. In words: Antifungal activity against Fusarium solani assessed as fungal growth inhibition at 100 ug/ml by micro-dilution method relative to control. In kind it is functional. As to conditions: read-out: GI.
In the next data set the test system is HEK293. In words: Cytotoxicity against human HEK293 cells assessed as effect on cell viability measured after 72 hrs by MTS assay. Type of data set: cell-based. As to conditions: hek293, 72 h. In general terms: Tetrazolium assays rely on reduction of a dye to a coloured formazan, in cell work by metabolically active cells.
The next data set relates to Candida tropicalis. The experiment in a line: Antifungal activity against Candida tropicalis assessed as fungal growth inhibition at 100 ug/ml by micro-dilution method relative to control. In kind it is functional. As to conditions: read-out: GI.
The test system of the next data set is Kluyveromyces marxianus. The experiment in a line: Antifungal activity against Candida pseudotropicalis assessed as fungal growth inhibition at 100 ug/ml by micro-dilution method relative to control. Type of data set: functional. As to conditions: read-out: GI.
The next data set has as its system Sclerotinia sclerotiorum. In words: Antifungal activity against Sclerotinia sclerotiorum assessed as fungal growth inhibition at 100 ug/ml by micro-dilution method relative to control. Type of data set: functional. As to conditions: read-out: GI.
A further data set has as its system Paecilomyces variotii. In words: Antifungal activity against Paecilomyces variotii assessed as fungal growth inhibition at 100 ug/ml by micro-dilution method relative to control. In kind it is functional. As to conditions: read-out: GI.
For the next data set, the system named is Pichia kudriavzevii. In words: Antifungal activity against Candida krusei assessed as fungal growth inhibition at 100 ug/ml by micro-dilution method relative to control. As to conditions: read-out: GI. In kind it is functional.

In the case of `CC(C)=CCC/C(C)=C/C=N/NC(=O)[C@@H]1CCC(=O)N1`, the inhibition of growth at 100 µg/mL in the data set with Aspergillus oryzae amounted to 17%; in the data set on Alternaria alternata, 0%; with Penicillium ochrochloron, 0%; in the data set on Geotrichum candidum it was 5%; in [1], 27%; with Botrytis cinerea it was 27%. Moreover, the inhibition of growth at 100 µg/mL with Fusarium solani is 43%; with Candida tropicalis, 38%; with Kluyveromyces marxianus, 8%; in the data set with Sclerotinia sclerotiorum, 15%; in the data set with Paecilomyces variotii it was 0%; in the data set on Pichia kudriavzevii, 0%. Further, the Activity entry with HEK293 is given as “Non-Toxic”.

In the case of `O=C1CC[C@@H](C(=O)N/N=C/c2c(F)c(F)c(F)c(F)c2F)N1`, the inhibition of growth at 100 µg/mL with Aspergillus oryzae was determined as 4%; in the data set with Alternaria alternata it was 0%; in the data set with Penicillium ochrochloron, 21%; in the data set on Geotrichum candidum, 36%; in [1], 11%; in the data set with Botrytis cinerea, 17%. Further, the inhibition of growth at 100 µg/mL with Fusarium solani was 40%; with Candida tropicalis, 0%; with Kluyveromyces marxianus, 0%; with Sclerotinia sclerotiorum, 5%; in the data set with Paecilomyces variotii, 0%; with Pichia kudriavzevii, 0%. Moreover, the Activity result in the data set on HEK293 is reported as “Non-Toxic”.

In the case of `O=C1CC[C@@H](C(=O)N/N=C/C2CCCCC2)N1`, the inhibition of growth at 100 µg/mL in the data set with Aspergillus oryzae was 8%; with Alternaria alternata it was 8%; in the data set with Penicillium ochrochloron it was 23%; in the data set with Geotrichum candidum, 62%; in data set [1] it was 1%; in the data set with Botrytis cinerea, 8%. Besides, the inhibition of growth at 100 µg/mL came out at 0% in the data set on Fusarium solani; 0% in the data set on Candida tropicalis; 30% in the data set with Kluyveromyces marxianus; 0% in the data set on Sclerotinia sclerotiorum; 36% in the data set with Paecilomyces variotii; 0% in the data set on Pichia kudriavzevii. For the same compound, the Activity result in the data set with HEK293 was “Non-Toxic”.

`COc1cc(/C=N/NC(=O)[C@@H]2CCC(=O)N2)cc(OC)c1OC`: the inhibition of growth at 100 µg/mL in the data set on Aspergillus oryzae was determined as 0%; with Alternaria alternata it was 29%; with Penicillium ochrochloron it was 32%; in the data set with Geotrichum candidum, 0%; in data set [1], 0%; in the data set with Botrytis cinerea it was 0%. The inhibition of growth at 100 µg/mL in the data set with Fusarium solani was 0%; in the data set with Candida tropicalis, 0%; with Kluyveromyces marxianus, 18%; in the data set with Sclerotinia sclerotiorum it was 0%; in the data set with Paecilomyces variotii, 26%; with Pichia kudriavzevii it was 50%. Moreover, the Activity entry with HEK293 is listed as “Non-Toxic”.

With `N#Cc1ccc(/C=N/NC(=O)[C@@H]2CCC(=O)N2)cc1`, the inhibition of growth at 100 µg/mL turned out to be 0% in the data set with Aspergillus oryzae; 42% with Alternaria alternata; 20% with Penicillium ochrochloron; 0% in the data set on Geotrichum candidum; 0% in data set [1]; 0% in the data set with Botrytis cinerea. In addition, the inhibition of growth at 100 µg/mL with Fusarium solani amounted to 0%; with Candida tropicalis it was 0%; with Kluyveromyces marxianus, 0%; in the data set with Sclerotinia sclerotiorum it was 0%; in the data set with Paecilomyces variotii, 33%; in the data set with Pichia kudriavzevii, 10%. Besides, the Activity result in the data set with HEK293 is given as “Non-Toxic”.

Take `O=C1CC[C@@H](C(=O)N/N=C/c2cccc(C(F)(F)F)c2Cl)N1`: the inhibition of growth at 100 µg/mL in the data set on Aspergillus oryzae came to 4%; in the data set on Alternaria alternata it was 12%; in the data set on Penicillium ochrochloron, 44%; in the data set with Geotrichum candidum it was 62%; in [1], 36%; in the data set on Botrytis cinerea it was 0%. Besides, the inhibition of growth at 100 µg/mL in the data set on Fusarium solani was found to be 0%; in the data set on Candida tropicalis, 0%; in the data set on Kluyveromyces marxianus, 18%; with Sclerotinia sclerotiorum, 0%; in the data set with Paecilomyces variotii, 19%; in the data set with Pichia kudriavzevii, 47%. In addition, in the data set with HEK293, the Activity entry is listed as “Non-Toxic”.

With `COc1cc(/C=N/NC(=O)[C@@H]2CCC(=O)N2)ccc1O`, the inhibition of growth at 100 µg/mL with Aspergillus oryzae turned out to be 0%; in the data set on Alternaria alternata, 20%; in the data set with Penicillium ochrochloron, 0%; in the data set on Geotrichum candidum, 0%; in data set [1] it was 0%; in the data set with Botrytis cinerea it was 0%. The inhibition of growth at 100 µg/mL worked out at 0% in the data set with Fusarium solani; 0% in the data set with Candida tropicalis; 0% with Kluyveromyces marxianus; 0% in the data set with Sclerotinia sclerotiorum; 22% in the data set on Paecilomyces variotii; 37% in the data set on Pichia kudriavzevii. Moreover, the Activity result in the data set with HEK293 is on record as “Non-Toxic”.

On to `C=C(C)C1CC=C(/C=N/NC(=O)[C@@H]2CCC(=O)N2)CC1` (some centres undefined), for which the inhibition of growth at 100 µg/mL with Aspergillus oryzae was found to be 0%; in the data set on Alternaria alternata, 0%; in the data set on Penicillium ochrochloron, 45%; in the data set with Geotrichum candidum, 39%; in [1], 56%; in the data set on Botrytis cinerea, 13%. Moreover, the inhibition of growth at 100 µg/mL turned out to be 0% in the data set with Fusarium solani; 0% in the data set on Candida tropicalis; 0% in the data set with Kluyveromyces marxianus; 0% in the data set on Sclerotinia sclerotiorum; 31% in the data set on Paecilomyces variotii; 18% with Pichia kudriavzevii. The Activity result in the data set with HEK293 was “Non-Toxic”.

In the case of `O=C1CC[C@@H](C(=O)N/N=C/CCc2ccccc2)N1`, the inhibition of growth at 100 µg/mL in the data set with Aspergillus oryzae came out at 0%; in the data set with Alternaria alternata, 0%; with Penicillium ochrochloron, 29%; with Geotrichum candidum, 68%; in data set [1], 53%; in the data set with Botrytis cinerea, 6%. Further, the inhibition of growth at 100 µg/mL came out at 0% in the data set with Fusarium solani; 17% in the data set on Candida tropicalis; 12% in the data set with Kluyveromyces marxianus; 0% in the data set on Sclerotinia sclerotiorum; 39% with Paecilomyces variotii; 0% with Pichia kudriavzevii. In addition, the Activity result in the data set with HEK293 is “Non-Toxic”.

Regarding `COc1ccc(/C=N/NC(=O)[C@@H]2CCC(=O)N2)cc1`, the inhibition of growth at 100 µg/mL was 24% in the data set with Aspergillus oryzae; 3% with Alternaria alternata; 23% in the data set with Penicillium ochrochloron; 25% in the data set on Geotrichum candidum; 35% in data set [1]; 0% in the data set on Botrytis cinerea. The inhibition of growth at 100 µg/mL turned out to be 0% in the data set on Fusarium solani; 49% with Candida tropicalis; 40% with Kluyveromyces marxianus; 38% in the data set with Sclerotinia sclerotiorum; 36% in the data set on Paecilomyces variotii; 40% in the data set with Pichia kudriavzevii. Besides, in the data set on HEK293, the Activity entry is “Non-Toxic”.

In the case of `O=C1CC[C@@H](C(=O)N/N=C/c2cc(F)ccc2F)N1`, the inhibition of growth at 100 µg/mL in the data set on Aspergillus oryzae amounted to 13%; in the data set with Alternaria alternata, 0%; in the data set with Penicillium ochrochloron, 26%; with Geotrichum candidum, 62%; in data set [1] it was 34%; in the data set on Botrytis cinerea, 6%. For the same compound, the inhibition of growth at 100 µg/mL was found to be 58% in the data set with Fusarium solani; 0% with Candida tropicalis; 18% in the data set on Kluyveromyces marxianus; 0% with Sclerotinia sclerotiorum; 37% in the data set on Paecilomyces variotii; 47% in the data set on Pichia kudriavzevii. Further, the Activity entry in the data set on HEK293 is recorded as “Non-Toxic”.

Turning to `CC1(C)C2CC=C(/C=N/NC(=O)[C@@H]3CCC(=O)N3)C1C2` (some centres undefined), the inhibition of growth at 100 µg/mL in the data set on Aspergillus oryzae worked out at 4%; in the data set with Alternaria alternata, 0%; with Penicillium ochrochloron, 0%; in the data set with Geotrichum candidum, 0%; in data set [1], 0%; in the data set with Botrytis cinerea, 0%. For the same compound, the inhibition of growth at 100 µg/mL is 0% in the data set with Fusarium solani; 0% with Candida tropicalis; 18% with Kluyveromyces marxianus; 0% in the data set with Sclerotinia sclerotiorum; 39% with Paecilomyces variotii; 0% in the data set on Pichia kudriavzevii. Further, the Activity entry in the data set on HEK293 is “Non-Toxic”.

Regarding `O=C1CCC(NNc2ccccn2)N1` (racemic), the inhibition of growth at 100 µg/mL with Aspergillus oryzae turned out to be 23%; in the data set on Alternaria alternata, 0%; in the data set on Penicillium ochrochloron, 21%; in the data set on Geotrichum candidum, 32%; in data set [1], 0%; with Botrytis cinerea it was 0%. In addition, the inhibition of growth at 100 µg/mL in the data set with Fusarium solani is 64%; in the data set with Candida tropicalis, 8%; in the data set on Kluyveromyces marxianus, 0%; in the data set with Sclerotinia sclerotiorum, 0%; with Paecilomyces variotii, 11%; in the data set with Pichia kudriavzevii, 0%. Besides, the Activity result in the data set on HEK293 is “Non-Toxic”.
